Patent US6753150B2, “Method for determining whether a compound is capable of inhibiting the interaction of a peptide with rage” (The Trustees of Columbia University in the City of New York, priority 1998, dated 2004)

What was measured:
sRAGE [1] = molecular target: T1, sRAGE (Homo sapiens, UniProt Q15109); experiment: Radioligand competition: 125I-sRAGE (100 nM) binding to immobilized CML-BSA with competitors; conditions: competitor in excess
T1 construct: full length soluble RAGE (100 nM; specific activity 7,000-8,000 cpm/ng)
T1 sequence (Q15109 23-342 limits assumed): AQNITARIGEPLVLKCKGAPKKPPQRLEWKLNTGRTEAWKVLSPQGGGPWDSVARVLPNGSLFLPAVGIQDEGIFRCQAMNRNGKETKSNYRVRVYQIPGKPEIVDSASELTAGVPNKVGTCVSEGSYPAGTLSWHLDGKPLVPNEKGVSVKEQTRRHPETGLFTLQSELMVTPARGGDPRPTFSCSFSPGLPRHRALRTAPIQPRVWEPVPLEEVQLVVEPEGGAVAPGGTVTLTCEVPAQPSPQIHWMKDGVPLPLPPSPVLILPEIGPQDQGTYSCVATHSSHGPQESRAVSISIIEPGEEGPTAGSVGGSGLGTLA
Description: Radioligand binding studies: competition experiments. CML-BSA was immobilized to wells; binding was performed with ^125-I sRAGE (100 nM) with the indicated competitors. […] Percent maximal binding is reported compared to binding to immobilized CML-BSA without competitor (100%).
Radioligand binding studies: CML-adducts interact with the V-type Ig domain of RAGE. CML-BSA was immobilized to wells; binding was performed with ^125-I sRAGE (100 nM) in the presence or absence of excess unlabelled (100-fold) V-type Ig domain, C1 Ig domain or C2 Ig domain. Percent maximal binding is reported compared to binding to immobilized CML-BSA without competitor (100%).
Radioligand binding assays. […] All materials were devoid of endotoxin using the Detoxi-gel system (PIERCE®) and tested for negativity in the limulus amebocyte assay (SIGMA®). Gas chromatography-mass spectroscopy and HPLC analyses were performed and verified the identity of the prepared AGES. Specific AGE or control protein (5 μg) was loaded onto the wells of a NUNC MAXISORP® dish in sodium bicarbonate/sodium carbonate buffer (pH 9.8) overnight at 4° C. […] The material retrieved was then counted in a gamma counter (LKB). […]
Radioligand binding studies. […] Radioligand binding assays were performed as described and equilibrium binding data was analyzed according to the equation of Klotz and Hunston.

RAGE = RAGE (Homo sapiens, UniProt Q15109); experiment: Binding of CML-modified proteins to immobilized RAGE (Example 2); conditions: for Kd: dose-dependent and saturable
Sequence of RAGE (Q15109 23-404): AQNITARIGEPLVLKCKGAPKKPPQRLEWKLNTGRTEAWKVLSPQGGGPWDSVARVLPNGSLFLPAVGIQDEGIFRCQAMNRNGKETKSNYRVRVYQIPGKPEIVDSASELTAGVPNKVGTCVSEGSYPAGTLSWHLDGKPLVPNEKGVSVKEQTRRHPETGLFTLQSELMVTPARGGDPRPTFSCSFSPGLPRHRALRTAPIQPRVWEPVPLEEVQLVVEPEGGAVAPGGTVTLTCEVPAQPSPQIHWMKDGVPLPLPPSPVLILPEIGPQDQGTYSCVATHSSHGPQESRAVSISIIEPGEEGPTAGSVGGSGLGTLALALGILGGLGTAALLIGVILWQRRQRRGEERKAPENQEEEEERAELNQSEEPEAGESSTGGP
Excerpt: (§1) Advanced glycation endproducts (AGEs) are heterogeneous compounds that form in hyperglycemia, highly-oxidized environments and renal failure. AGEs accumulate in the plasma and tissues of patients with diabetes; their presence has been linked to the development of medical complications. Interaction of AGEs with Receptor for AGE ([…]) activates cells such as endothelial cells (Ecs) and monocytes (Mps) in a manner favoring the development of vascular/inflammatory cell complications. AGEs consist of structures such as carboxymethyl-lysine and pentosidine (both free and protein-bound forms). To begin to delineate which AGE forms interact with RAGE, we prepared free CML and pentosidine, as well as CML- and pentosidine bovine serum albumin (BSA) and ovalbumin (OVA).

sRAGE [2] = molecular target: T1, sRAGE; experiment: Radioligand binding of 125I-sRAGE to immobilized AGE-modified proteins (dose response); conditions: for specific binding to sRAGE/RAGE: immobilized AGE-protein, 125I-sRAGE
Description: Radioligand binding studies: dose response experiments. CML- or pentosidine BSA (5 μg) was immobilized to plastic wells and radioligand binding assays performed with increasing concentrations of purified ^125-I sRAGE +/− excess unlabelled sRAGE (50-fold molar excess). Bound tracer was eluted with buffer containing NP40 (1%) and NaCl (0.15M) and the data subjected to analysis as described in the Experimental Details section.
Radioligand binding assays. […] All materials were devoid of endotoxin using the Detoxi-gel system (PIERCE®) and tested for negativity in the limulus amebocyte assay (SIGMA®). […] Specific AGE or control protein (5 μg) was loaded onto the wells of a NUNC MAXISORP® dish in sodium bicarbonate/sodium carbonate buffer (pH 9.8) overnight at 4° C. The following morning, wells were aspirated and blocked with phosphate buffered saline (with calcium/magnesium) containing bovine serum albumin (1%) for two hrs at 37° C. Wells were then washed once with phosphate buffered saline (without calcium/magnesium) containing Tween 20 (0.05%); 0.150 ml/well. A radioligand binding assay was then performed in phosphate buffered saline containing 0.2% bovine serum albumin for 2 hrs at 37° C. utilizing radiolabelled (^125I; using Iodogen (Pierce)) full length soluble RAGE (100 nM; specific activity 7,000-8,000 cpm/ng) in the presence or absence of unlabelled soluble RAGE (50×molar excess) or the indicated molar excess of competitor. Wells were then eluted after washing as above with buffer containing NP-40 (1%) and NaCl (0.15M). The material retrieved was then counted in a gamma counter (LKB). In certain experiments, antibodies or excess soluble RAGE were employed as indicated to test their ability to compete in the indicated assays.
Radioligand binding studies. […] Radioligand binding assays were performed in which CML-BSA, pentosidine-BSA or methylglyoxal-human serum albumin was adsorbed to plastic wells. Radioligand binding assays were performed as described and equilibrium binding data was analyzed according to the equation of Klotz and Hunston.

NF-κB [3] = experiment: NF-κB activation in monocytes (MPs) (Example 2); type: cell-based
Excerpt: as §1

NF-κB [4] = experiment: Electrophoretic mobility shift assay for NF-κB in endothelial cells; type: cell-based, human; conditions: for nuclear translocation / activation of NF-κB in HUVEC: 6 hrs, AGEs at 50 μg/ml; for activation of NF-κB in Ecs: Example 2
Description: FIG. 6. Electrophoretic mobility shift assay. Human umbilical vein endothelial cells (HUVEC) were incubated with mediators for 6 hrs; nuclear extracts were prepared and electrophoretic mobility shift assays performed with ^32P-labelled probe for NF-κB. Lanes contain mediators as above (all AGEs were added at 50 μg/ml). Lanes contain: lane 1, CML-ovalbumin; lane 2, native ovalbumin; lane 3, pentosidine ovalbumin; lane 4, nonimmune IgG and CML ovalbumin; lane 5, anti-RAGE IgG: 7 μg/ml; lane 6; anti-RAGE IgG: 70 μg/ml; lane 7: CML-ovalbumin/100-fold excess unlabelled NF-κB. Supershift assays (lane 8: anti-p50 IgG; lane 9:anti-p65 IgG; lane 10:both anti-p50 IgG and anti-p65 IgG; lane 11: preimmune IgG), all + CML-ovalbumin. Lane 12:CML-ovalbumin: vector alone/13:tail-deleted RAGE.
Electrophoretic mobility shift assays (EMSA). Nuclear extracts were prepared from HUVECs by the method of Schreiber (33). Protein concentration was determined using the Bradford reagent (BIO-RAD®). Double-stranded oligonucleotides representing a portion of the human VCAM-1 promoter containing an NF-κB site were synthesized (Life Technologies). Oligonucleotides were used as probe as follows: NF-κB: 5′[…]3′ (SEQ ID No. 1). Probes were 5′-end labelled with g-[^32P] ATP and polynucleotide kinase. Each reaction contained 10 fmol of probe and 2-5 microliter (1.5 μg) of nuclear extract. Binding reactions were performed in buffer as previously described (19). Complexes were resolved on nondenaturing polyacrylamide gels (6%) in tris (50 mM), borate (45 mM), and EDTA (0.5 mM), ([…]; final pH 7.5). Samples were subjected to electrophoresis for 2 hrs at 10 V/cm. For supershift assays, complexes were preincubated with anti-p65 IgG, anti-p50 IgG or both together, or nonimmune IgG (7.5 μg/ml; 2 hrs 37° C.) in a total reaction volume of 20 μl.
We tested the ability of CML-ovalbumin to ligate RAGE and activate cell signalling pathways.

[5] = system: Human umbilical vein endothelial cells (HUVEC); experiment: Molt-4 binding assay on stimulated endothelial cells (cell surface VCAM-1 functional activity); type: cell-based; conditions: for binding of Molt-4 cells to Ecs: Example 2
Description: FIG. 4. Cellular activation studies: endothelial cells. HUVEC were incubated in the presence of the indicated mediators for 6 hrs. Where indicated, certain cells were preincubated with anti-RAGE/preimmune IgG for one hour. Cells were washed and incubated with ^51Cr-Molt-4 cells (bear VLA-4) for 1 hr. Bound radioactivity was eluted in the presence of SDS (1%) and counted in a gamma counter. Results are reported compared with Molt-4 cell binding to cells exposed to native ovalbumin (defined as “1”).
Molt-4 binding assays. Molt-4 binding assays were performed according to the general method of Marui et al (32). Human umbilical vein endothelial cells were stimulated with the indicated compound in the presence or absence of competitors for 6 hrs at 37° C. Molt-4 cells, which express VLA-4, ligand for VCAM-1, (ATCC) were grown in RPMI 1640 containing fetal bovine serum (10%). Radio labelling was accomplished by incubating Molt-4 cells (2×10^7 cells/ml) for 16 hrs at 37° C. in the above medium containing ^51-Cr (0.2 mCi/ml). Before the binding assay, unincorporated radioactivity was removed by washing cells with Hank's balanced salt solution, and then resuspending them in RPMI containing fetal bovine serum (10%) at 4×10^6 cells/ml. Molt-4 cells were incubated with endothelial cells for one hr at 37° C., and nonadherent cells were removed by washing twice with Medium 199 containing fetal bovine serum (1%); adherent cells were solubilized in SDS (1%), and radioactivity counted in a gamma counter.
To test if incubation of CML-ovalbumin or pentosidine-ovalbumin activated EC, specific AGEs were rendered free of endotoxin (Detoxigel columns (PIERCE®)) and tested for absence of endotoxin by limulus amebocyte assay (SIGMA®).

[6] = system: human peripheral blood-derived mononuclear phagocytes; experiment: Monocyte chemotaxis assay in modified chemotaxis chambers; type: cell-based; conditions: mediator in lower wells, three hrs
Description: FIG. 5. Cellular activation studies: mononuclear phagocytes. Human monocytes (5×10^4) were placed in the upper wells of modified chemotaxis chambers with the indicated mediators in the lower wells for three hrs. Membranes were then stained with Giemsa and cells that migrated through the membrane toward the chemotactic stimulus counted per hpf.
Chenotaxis assays. Chemotaxis assays, performed in 48-well microchemotaxis chambers (Neuro-Probe) containing polycarbonate membranes were performed as previously described (15). In these studies, human peripheral blood-derived mononuclear phagocytes, which bear cell surface RAGE, were employed.
Mononuclear phagocytes. To determine if CML-ovalbumin mediated increased human peripheral blood-derived monocyte chemotaxis, experiments were performed in modified chemotaxis chambers as described above.

VCAM-1 = experiment: Infusion into normal mice, Northern analysis of VCAM-1 mRNA in lung; type: in vivo; conditions: 100 μg infused into CD1 mice, six hrs, Northern blot
Description: FIG. 7. In vivo studies: infusion of CML-BSA into mice modulates […] expression. CML-BSA (lane 2) or native BSA (lane 1) (both 100 μg) was infused into normal CD1 mice. LPS (100 μg) was infused as positive control (lane 3). Six hrs later, mice were humanely sacrificed and lungs rapidly removed for preparation of RNA. Northern analysis was performed as described above for VCAM-1; membranes were then stripped and reprobed with ^32-P-labelled cDNA for G3PDH.
Northern blot analysis. Northern blot analysis for VCAM-1 and G3PDH were performed as previously described (19).
Infusion of CML-BSA into normal mice increases mRNA for Vascular Cell Adhesion Molecule-1.

Molecule: N[C@@H](CCCCn1cccc2nc(NCCC[C@H](N)C(=O)O)nc1-2)C(=O)O [free pentosidine, Pentosidine]
- effect on binding of 125I-sRAGE to immobilized CML-BSA (sRAGE [1]): no effect
- effect on binding of CML-BSA and CML-OVA to immobilized RAGE (RAGE): not

Molecule: N[C@@H](CCCCNCC(=O)O)C(=O)O [free CML, N^e-(Carboxymethyl)lysine]
- specific binding to sRAGE/RAGE (sRAGE [2]): not
- effect on binding of 125I-sRAGE to immobilized CML-BSA (sRAGE [1]): no effect
- effect on binding of CML-BSA and CML-OVA to immobilized RAGE (RAGE): not

Molecule: CML-ovalbumin: carboxymethyl-lysine-modified ovalbumin, a synthetic AGE
- activation of NF-κB in MPs (NF-κB [3]): activated NF-κB
- nuclear translocation / activation of NF-κB in HUVEC (NF-κB [4]): increased nuclear translocation of NF-κB
- activation of NF-κB in Ecs (NF-κB [4]): activated NF-κB
- binding of Molt-4 cells to Ecs [5]: increased binding of Molt-4 cells
- increase in binding of 51Cr-Molt 4 cells to HUVEC ([5]; HUVEC exposed 6 hrs, relative to native ovalbumin (defined as 1)): 2.3 fold
- monocyte chemotaxis [6]: stimulated monocyte chemotaxis in a dose-dependent manner

Molecule: CML-BSA: carboxymethyl-lysine-modified bovine serum albumin, a synthetic AGE
- activation of NF-κB in MPs (NF-κB [3]): activated NF-κB
- Kd (sRAGE [2]; read-out: KD of binding to sRAGE, AGE-protein (5 μg) immobilized on wells, increasing 125I-sRAGE +/- 50-fold excess unlabelled sRAGE): ~76 nM
- Kd (RAGE): 60 nM
- mRNA for VCAM-1 in lung tissue (VCAM-1): increased mRNA for VCAM-1

Molecule: pentosidine-ovalbumin: pentosidine-modified ovalbumin
- nuclear translocation / activation of NF-κB in HUVEC (NF-κB [4]): not
- effect on binding of 51Cr-Molt 4 cells to HUVEC ([5]; HUVEC exposed 6 hrs): without effect

Molecule: native ovalbumin: unmodified ovalbumin control protein
- nuclear translocation / activation of NF-κB in HUVEC (NF-κB [4]): not
- effect on binding of 51Cr-Molt 4 cells to HUVEC ([5]; HUVEC exposed 6 hrs): without effect
- monocyte chemotaxis [6]: without effect

Molecule: pentosidine-BSA: pentosidine-modified bovine serum albumin
- activation of NF-κB in MPs (NF-κB [3]): without effect
- specific binding to sRAGE/RAGE (sRAGE [2]): no specific binding
- activation of NF-κB in Ecs (NF-κB [4]): without effect
- binding of Molt-4 cells to Ecs [5]: without effect
- monocyte chemotaxis [6]: without effect

Molecule: unmodified BSA: unmodified bovine serum albumin control protein
- effect on binding of CML-BSA and CML-OVA to immobilized RAGE (RAGE): not
- mRNA for VCAM-1 in lung tissue (VCAM-1): without effect

B1: CML-ovalbumin: carboxymethyl-lysine-modified ovalbumin, a synthetic AGE (protein, UniProt P01012 2-386, looked up)
Ovalbumin: GSIGAASMEFCFDVFKELKVHHANENIFYCPIAIMSALAMVYLGAKDSTRTQINKVVRFDKLPGFGDSIEAQCGTSVNVHSSLRDILNQITKPNDVYSFSLASRLYAEERYPILPEYLQCVKELYRGGLEPINFQTAADQARELINSWVESQTNGIIRNVLQPSSVDSQTAMVLVNAIVFKGLWEKAFKDEDTQAMPFRVTEQESKPVQMMYQIGLFRVASMASEKMKILELPFASGTMSMLVLLPDEVSGLEQLESIINFEKLTEWTSSNVMEERKIKVYLPRMKMEEKYNLTSVLMAMGITDVFSSSANLSGISSAESLKISQAVHAAHAEINEAGREVVGSAEAGVDAASVSEEFRADHPFLFCIKHIATNAVLFFGRCVSP
modifications: carboxymethyl-lysine modified
notes: carboxymethyl-lysine-modified ovalbumin, a synthetic AGE
- Kd (RAGE): 60 nM

B2: native ovalbumin: unmodified ovalbumin control protein (protein, UniProt P01012 2-386, looked up)
Ovalbumin: B1 Ovalbumin
- effect on binding of CML-BSA and CML-OVA to immobilized RAGE (RAGE): not
